Data reported in patent publication US6040337A, “5-demethoxyfumagillol derivatives and processes for preparing the same” (priority 1998, dated 2000).
≈ marks a conversion by molar mass, not a printed value. Like-named read-outs stand apart in the source and are kept apart here.

Columns and labels:
[1] = tested on: CPAE (Calf Pulmonary Artery Endothelial) cells; experiment: Inhibiting activity on angiogenesis (in vitro), CPAE cells, SRB method; assay type: cell-based; conditions: Bos taurus, Endothelial cell, 96 h, read-out: IC50, CPAE
Experimental: (§1) Examination of the Inhibiting Activity on Angiogenesis (In Vitro)
(§2) The compound sample dissolved in DMSO was diluted to ten times by using MEM culture medium (in case of CPAE cells) without adding FBS (Fetal Bovine Serum) and RPMI 1640 culture (in case of EL-4 and P388D1 cells), and 20 of the solution was poured to each well of 96 well plate in triplicate for every concentration gradient. Then, each cell suspension was prepared and poured to examine the inhibiting activity on angiogenesis.
In case of CPAE (Calf Pulmonary Artery Endothelial) cells (used after 2-3 subcultures), a cell suspension having 7×10^3 cells/ml was prepared with MEM (+10% FBS+50 μg/ml ECGS) medium, and after pouring the suspension (180 μl) to each well of 96 well plate, they were cultured in a CO2 incubator (5% CO2, humidified) for 4 days.

[2] = tested on: EL-4 (Lymphoma, murine) cells; experiment: Inhibiting activity on angiogenesis (in vitro), EL-4 cells, MTT method; assay type: cell-based; conditions: Mus musculus, EL4, 72 h, read-out: IC50, EL-4
Experimental: as §1, §2
In case of EL-4 (Lymphoma, murine) and P388D1 (leukemia, mouse) cells, a cell suspension having 1×10^4 cells/ml was prepared with RPMI1640 (+10% FBS) culture medium, and after pouring the suspension (180 μl) to each well of 96 well plate, they were cultured in a CO2 incubator (5% CO2, humidified) for 3 days.

[3] = CPAE cells, 4 days culture, SRB method
[4] = EL-4 cells, 3 days culture, MTT method

SMILES | IC50 [1, 3] [ng/mL] | IC50 [2, 4] [ng/mL] | IC50 [1] [ng/mL] | IC50 [2] [ng/mL]
CC(C)=CC[C@H]1O[C@]1(C)[C@H]1C[C@H](OC(=O)/C=C/C=C/C=C/C=C/C(=O)O)CC[C@]12CO2 [5-Demethoxy fumagillin, 5-demethoxyfumagillin, reference compound] | 28 (≈ 65.3 nM) | 21 (≈ 49 nM) |  | 
CC(C)=CC[C@H]1O[C@]1(C)[C@H]1CC(=O)CC[C@]1(O)CCl [Example 4, 3-Chloromethyl-5-demethoxy-3-hydroxy-6-oxo-6-deoxyfumagillol] | 0.57 (≈ 1.99 nM) | 0.46 (≈ 1.6 nM) |  | 
CC(C)=CC[C@H]1O[C@]1(C)[C@H]1C[C@H](OC(=O)NC(=O)CCl)CC[C@]12CO2 [Example 5, 5-Demethoxy-6-O-chloroacetylcarbamoylfumagillol] |  |  | 0.28 (≈ 0.753 nM) | 0.52 (≈ 1.4 nM)
COc1cc(/C=C/C(=O)O[C@@H]2CC[C@]3(CO3)[C@@H]([C@@]3(C)O[C@@H]3CC=C(C)C)C2)cc(OC)c1OC [Example 7, 5-Demethoxy-6-O-(3,4,5-trimethoxy)cinnamoyl fumagillol] | 0.042 (≈ 0.0889 nM) | 0.066 (≈ 0.14 nM) |  | 
CC(C)=CC[C@H]1O[C@]1(C)[C@H]1C[C@H](OC(=O)/C=C/c2ccc(Cl)cc2)CC[C@]12CO2 [Example 8, 5-Demethoxy-6-O-(4-chlorocinnamoyl)fumagillol] | 0.32 (≈ 0.767 nM) | 0.26 (≈ 0.624 nM) |  | 
CC(C)=CC[C@H]1O[C@]1(C)[C@H]1C[C@H](OC(=O)NC(=O)CCl)CC[C@]1(O)CCl [Example 9, 4-O-chloroacetylcarbamoyl-l-chloromethyl-l-cyclohexanol] | 0.36 (≈ 0.882 nM) | 0.43 (≈ 1.05 nM) |  | 
COc1ccc(CCC(=O)O[C@@H]2CC[C@]3(CO3)[C@@H]([C@@]3(C)O[C@@H]3CC=C(C)C)C2)cc1 [Example 10, 5-Demethoxy-6-O-[3-(4-methoxyphenyl)propionyl] fumagillol] | 0.46 (≈ 1.11 nM) | 0.82 (≈ 1.98 nM) |  | 
CC(C)=CC[C@H]1O[C@]1(C)[C@H]1C[C@H](OC(=O)OCc2ccccc2)CC[C@]12CO2 [Example 11, O-benzyloxycarbonyl-5-demethoxyfumagillol] |  | 0.041 (≈ 0.106 nM) | 0.012 (≈ 0.031 nM) | 
CC(C)=CC[C@H]1O[C@]1(C)[C@H]1CC(NC(=O)/C=C/c2ccc(N(C)C)cc2)CC[C@]12CO2 (stereo partly shown) [Example 14, 6-(4-Dimethylaminocinnamoyl)amino-5-demethoxy-6-deoxyfumagillol] | 0.19 (≈ 0.447 nM) | 0.41 (≈ 0.966 nM) |  | 
CC(C)=CC[C@H]1O[C@]1(C)[C@H]1CC(=O)CC[C@]1(O)C[S+](C)C [Example 20, 2-(1,2-Epoxy-1,5-dimethyl-4-hexenyl)-1-dimethylsulfoniomethyl-4-oxo-1-cyclohexanol iodide] | 0.012 | 0.032 |  | 
CO[C@@H]1[C@H](OC(=O)/C=C/C=C/C=C/C=C/C(=O)O)CC[C@]2(CO2)[C@H]1[C@@]1(C)O[C@@H]1CC=C(C)C [Fumagillin, reference compound] |  |  | 3.2 (≈ 6.98 nM) | 1.6 (≈ 3.49 nM)
